# Assays:
# [1] = tested on: Neonatal Rat Ventricular Myocytes (NRVMs); assay: Myocyte proliferation assay (EdU assay) in neonatal rat ventricular myocytes; type: cell-based; details: growth relative to blank myocyte growth without compound added; for Avg 1 uM (average myocyte proliferation): compound 1 uM; for Avg 3 uM (average myocyte proliferation): compound 3 uM
# How it was run: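 Neonatal rat ventricular myocytes, fibroblast-depleted by preplating, serum-starved 24 h (2% FBS/ITS), then given compound at 10, 3 or 1 uM in 6% FBS medium for 36 h before 12 h EdU labelling. Fixed cells stained for EdU (Click-iT), ab8295 primary antibody and DAPI; quantified by high-content confocal imaging.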
# human HIPK1 = biological target: T1, human HIPK1 (Homo sapiens, UniProt Q86Z02); assay: HIPK1 enzyme assay (ADP-Glo); type: biochemical; details: ADP-Glo, ATP 5 μM; read-out: HIPK1 IC50
# T1 construct: Recombinant human HIPK1 (156-555); GST (N); purchased SignalChem H03-11G; host or cells: Sf9 insect cells
# T1 sequence (Q86Z02 156-555): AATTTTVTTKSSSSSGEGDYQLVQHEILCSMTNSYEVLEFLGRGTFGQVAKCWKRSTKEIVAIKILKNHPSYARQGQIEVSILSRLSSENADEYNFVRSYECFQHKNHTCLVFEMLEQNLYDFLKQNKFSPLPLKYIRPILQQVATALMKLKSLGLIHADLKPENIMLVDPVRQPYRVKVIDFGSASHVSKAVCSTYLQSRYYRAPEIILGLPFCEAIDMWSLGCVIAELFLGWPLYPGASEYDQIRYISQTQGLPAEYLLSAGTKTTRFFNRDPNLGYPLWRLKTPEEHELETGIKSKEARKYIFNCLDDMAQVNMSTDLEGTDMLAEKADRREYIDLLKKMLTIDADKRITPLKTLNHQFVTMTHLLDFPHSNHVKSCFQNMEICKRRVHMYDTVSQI
# How it was run: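 Recombinant GST-tagged HIPK1 (156-555, Sf9), 4 nM, preincubated 30 min at 25° C with compound in Tris pH 7.5/MgCl2/BSA/DTT, then reacted 90 min with 0.05 mg/ml MBP and 5 μM ATP. ADP formed read by ADP-Glo luminescence; IC50 from four-parameter logistic fit of % inhibition versus Max/Min controls.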
Structure (SMILES),Avg 1 uM (average myocyte proliferation) [1],Avg 3 uM (average myocyte proliferation) [1],IC50 (human HIPK1)
"O=C1NC(Nc2ccc3ncsc3c2)=N/C1=C\c1ccc2scnc2c1 [Example 57, (Z)-5-(benzo[d]thiazol-5-ylmethylene)-2-(benzo[d]thiazol-6-ylamino)-3,5-dihydro-4H-imidazol-4-one]",* (<10% growth relative to blank myocyte growth without compound added.),* (<10% growth relative to blank myocyte growth without compound added.),< 0.1 µM
"O=C1NC(Nc2ccc3ncsc3c2)=N/C1=C\c1ccc2[nH]ccc2c1 [Example 58, (Z)-5-((1H-indol-5-yl)methylene)-2-(benzo[d]thiazol-6-ylamino)-3,5-dihydro-4H-imidazol-4-one]",* (<10% growth relative to blank myocyte growth without compound added.),* (<10% growth relative to blank myocyte growth without compound added.),> 10 µM
"O=C1NC(Nc2ccc3ncsc3c2)=N/C1=C\c1ccc2occc2c1 [Example 59, (Z)-2-(benzo[d]thiazol-6-ylamino)-5-(benzofuran-5-ylmethylene)-3,5-dihydro-4H-imidazol-4-one]",* (<10% growth relative to blank myocyte growth without compound added.),* (<10% growth relative to blank myocyte growth without compound added.),> 10 µM
"O=C1NC(Nc2ccc3ncsc3c2)=N/C1=C\c1ccc2cccnc2c1 [Example 60, (Z)-2-(benzo[d]thiazol-6-ylamino)-5-(quinolin-7-ylmethylene)-3,5-dihydro-4H-imidazol-4-one]",* (<10% growth relative to blank myocyte growth without compound added.),* (<10% growth relative to blank myocyte growth without compound added.),> 10 µM
"Cn1cnc2cc(NC3=N/C(=C\c4ccc5ncsc5c4)C(=O)N3)ccc21 [Example 61, (Z)-5-(benzo[d]thiazol-6-ylmethylene)-2-((1-methyl-1H-benzo[d]imidazol-5-yl)amino)-3,5-dihydro-4H-imidazol-4-one]",* (<10% growth relative to blank myocyte growth without compound added.),** (10%-50%),0.1 to 1 µM
"O=C1NC(Nc2ccc3ncsc3c2)=N/C1=C\c1ccc2cc[nH]c2c1 [Example 63, (Z)-5-((1H-indol-6-yl)methylene)-2-(benzo[d]thiazol-6-ylamino)-3,5-dihydro-4H-imidazol-4-one]",* (<10% growth relative to blank myocyte growth without compound added.),* (<10% growth relative to blank myocyte growth without compound added.),> 10 µM
"O=C1NC(Nc2ccc3[nH]ccc3c2)=N/C1=C\c1ccc2ncsc2c1 [Example 69, (Z)-2-((1H-indol-5-yl)amino)-5-(benzo[d]thiazol-6-ylmethylene)-3,5-dihydro-4H-imidazol-4-one]",** (10%-50%),* (<10% growth relative to blank myocyte growth without compound added.),0.1 to 1 µM
"CN(C1=N/C(=C\c2ccc3c(c2)OCO3)C(=O)N1)c1ccc2ncsc2c1 [Example 70, (Z)-5-(benzo[d][1,3]dioxol-5-ylmethylene)-2-(benzo[d]thiazol-6-yl(methyl)amino)-3,5-dihydro-4H-imidazol-4-one]",** (10%-50%),** (10%-50%),> 10 µM
"Cn1cnc2cc(/C=C3\N=C(Nc4ccccc4)NC3=O)ccc21 [Example 71, (Z)-5-((1-methyl-1H-benzo[d]imidazol-5-yl)methylene)-2-(phenylamino)-3,5-dihydro-4H-imidazol-4-one]",* (<10% growth relative to blank myocyte growth without compound added.),* (<10% growth relative to blank myocyte growth without compound added.),> 10 µM
"O=C1NC(Nc2ccccc2)=N/C1=C\c1ccc2sccc2c1 [Example 72, (Z)-5-(benzo[b]thiophen-5-ylmethylene)-2-(phenylamino)-3,5-dihydro-4H-imidazol-4-one]",* (<10% growth relative to blank myocyte growth without compound added.),* (<10% growth relative to blank myocyte growth without compound added.),> 10 µM
"O=C1NC(Nc2ccccc2)=N/C1=C\c1ccc2cc[nH]c2c1 [Example 73, (Z)-5-((1H-indol-6-yl)methylene)-2-(phenylamino)-3,5-dihydro-4H-imidazol-4-one]",* (<10% growth relative to blank myocyte growth without compound added.),* (<10% growth relative to blank myocyte growth without compound added.),> 10 µM
"O=C1NC(Nc2ccc3ncsc3c2)=N/C1=C\c1ccc2c(c1)OCCO2 [Example 74, (Z)-2-(benzo[d]thiazol-6-ylamino)-5-((2,3-dihydrobenzo[b][1,4]dioxin-6-yl)methylene)-3,5-dihydro-4H-imidazol-4-one]",* (<10% growth relative to blank myocyte growth without compound added.),*** (>50%),> 10 µM
"Cn1cnc2ccc(/C=C3\N=C(Nc4ccc5ncsc5c4)NC3=O)cc21 [Example 75, (Z)-2-(benzo[d]thiazol-6-ylamino)-5-((1-methyl-1H-benzo[d]imidazol-6-yl)methylene)-3,5-dihydro-4H-imidazol-4-one]",** (10%-50%),** (10%-50%),< 0.1 µM
"O=C1NC(Nc2ccc3ncsc3c2)=N/C1=C\c1ccc2nc[nH]c2c1 [Example 76, (Z)-5-((1H-benzo[d]imidazol-6-yl)methylene)-2-(benzo[d]thiazol-6-ylamino)-3,5-dihydro-4H-imidazol-4-one]",* (<10% growth relative to blank myocyte growth without compound added.),** (10%-50%),0.1 to 1 µM
"Cn1ncc2cc(/C=C3\N=C(Nc4ccccc4)NC3=O)ccc21 [Example 77, (Z)-5-((1-methyl-1H-indazol-5-yl)methylene)-2-(phenylamino)-3,5-dihydro-4H-imidazol-4-one]",* (<10% growth relative to blank myocyte growth without compound added.),* (<10% growth relative to blank myocyte growth without compound added.),> 10 µM
"Cn1ncc2cc(/C=C3\N=C(Nc4ccc5ncsc5c4)NC3=O)ccc21 [Example 78, (Z)-2-(benzo[d]thiazol-6-ylamino)-5-((1-methyl-1H-indazol-5-yl)methylene)-3,5-dihydro-4H-imidazol-4-one]",* (<10% growth relative to blank myocyte growth without compound added.),* (<10% growth relative to blank myocyte growth without compound added.),> 10 µM
"Cn1ncc2ccc(/C=C3\N=C(Nc4ccccc4)NC3=O)cc21 [Example 79, 5-((1-methyl-1H-indazol-6-yl)methylene)-2-(phenylamino)-3,5-dihydro-4H-imidazol-4-one]",* (<10% growth relative to blank myocyte growth without compound added.),* (<10% growth relative to blank myocyte growth without compound added.),> 10 µM
"Cn1ncc2ccc(/C=C3\N=C(Nc4ccc5ncsc5c4)NC3=O)cc21 [Example 80, (Z)-2-(benzo[d]thiazol-6-ylamino)-5-((1-methyl-1H-indazol-6-yl)methylene)-3,5-dihydro-4H-imidazol-4-one]",* (<10% growth relative to blank myocyte growth without compound added.),* (<10% growth relative to blank myocyte growth without compound added.),> 10 µM
"O=C1NC(Nc2ccc3c(c2)OCCO3)=N/C1=C\c1ccc2ncsc2c1 [Example 81, (Z)-5-(benzo[d]thiazol-6-ylmethylene)-2-((2,3-dihydrobenzo[b][1,4]dioxin-6-yl)amino)-3,5-dihydro-4H-imidazol-4-one]",* (<10% growth relative to blank myocyte growth without compound added.),* (<10% growth relative to blank myocyte growth without compound added.),0.1 to 1 µM
"O=C1NC(Nc2ccc3nccnc3c2)=N/C1=C\c1ccc2ncsc2c1 [Example 82, (Z)-5-(benzo[d]thiazol-6-ylmethylene)-2-(quinoxalin-6-ylamino)-3,5-dihydro-4H-imidazol-4-one]",** (10%-50%),** (10%-50%),> 10 µM
"CN(C1=N/C(=C\c2ccc3ncsc3c2)C(=O)N1)c1ccc2ncsc2c1 [Example 83, (Z)-2-(benzo[d]thiazol-6-yl(methyl)amino)-5-(benzo[d]thiazol-6-ylmethylene)-3,5-dihydro-4H-imidazol-4-one]",** (10%-50%),** (10%-50%),> 10 µM
"CN(C1=N/C(=C\c2ccc3c(c2)OCCO3)C(=O)N1)c1ccc2ncsc2c1 [Example 84, (Z)-2-(benzo[d]thiazol-6-yl(methyl)amino)-5-((2,3-dihydrobenzo[b][1,4]dioxin-6-yl)methylene)-3,5-dihydro-4H-imidazol-4-one]",* (<10% growth relative to blank myocyte growth without compound added.),** (10%-50%),> 10 µM

# From patent US12643887B2, “Heterocyclic derivatives with cardiomyocyte proliferation activity for treatment of heart diseases” (Tongji University, priority 2019, dated 2026)
